Data reported in US20200113923A1, “DOT1L INHIBITORS FOR USE IN THE TREATMENT OF LEUKEMIA” (Epizyme, Inc., priority 2012, published 2020).

Key:
Format in all cases: cell-based, Human
[1] = tested on: H3K79me2; experiment: H3K79me2 immunoblot in EOL-1 cells
Description: Nuclei were collected by centrifugation at […] for 5 minutes at 4° C. and washed once in Tris/EDTA buffer (pH 7.4). Supernatant was removed and histones extracted for one hour with 60 μl 0.4 N cold sulfuric acid. Extracts were clarified by centrifugation at 10,000 g for 10 minutes at 4° C. and transferred to a fresh microcentrifuge tube containing 600 μl ice cold acetone. Histones were precipitated at −20° C. for 2 hours, pelleted by centrifugation at 10,000 g for 10 minutes and resuspended in 60 μl distilled water (DI water). Total protein of the acid extracts was assessed using a bicinchoninic acid (BCA) protein quantification assay with a bovine serum albumin (BSA) standard (Pierce Biotechnology).
For immunoblot analysis of the H3K79me2 inhibition by DOT1L inhibitor, exponentially growing EOL-1 cells were seeded at 2×10^5 cells/mL and incubated in the presence of increasing concentrations of DOT1L inhibitor for 4 days. […] Signal intensities specific for each methyl-specific antibody was quantified using Odyssey software and normalized to that of the appropriate total histone control signal on the same filter by dividing the methyl-specific antibody signal intensity by the total histone control signal intensity.
Inhibition of methylation of H3K79 was assessed after 4 days of treatment of DOT1L compounds in exponentially growing EOL-1 cells. […]

[2] = tested on: HOXA9; experiment: Quantitative real-time PCR, HOXA9 expression after DOT1L inhibitor treatment; settings: up to 10 μM for 6 days, qPCR
Description: (§1) Exponentially growing EOL-1 cells were plated in a 12 well plate at 2×10^5 cells/mL. […] On day 4, cells were maintained in log phase culture by reseeding at 5×10^5 cells/mL and compound was replenished. At day 6 cells were washed twice with PBS and pelleted by centrifugation at 200×g. Cell pellets were lysed in 300 μL RLT buffer (Qiagen) and total RNA was isolated using the RNeasy total RNA isolation kit (Qiagen 74106). Total RNA (1 μg) was reverse transcribed using a high capacity cDNA reverse transcription kit (Applied Biosystems 4368813). RNA isolation and cDNA synthesis were carried out according to the manufacturer's protocol. Predesigned labeled primer and probe sets for HOXA9 (Hs00365956), MEIS1 (Hs00180020) and FLT3 (Hs00975659) were purchased from Applied Biosystems. Quantitative real-time PCR (qPCR) reactions contained 50 ng cDNA, 1× labeled primer and probe set, and 1× Taqman universal PCR master mix (Applied Biosystems 4304437). Samples were run on a 7900 HT Fast Real Time PCR machine (Applied Biosystems 4351405) with cycling conditions of 2 min 50° C., 10 min 95° C., 40 cycles at 15 sec 95° C. and 1 min 60° C. […] Percent of DMSO control was calculated with the equation (2^−ΔΔCT)*100 where the ΔΔCT is the difference between normalized target gene and DMSO control (ΔCT sample−ΔCT control=ΔΔCT). […]

[3] = tested on: EOL-1 cells; experiment: EOL-1 cell growth and viability assay (Guava Viacount, 11 days)
Description: Human leukemia cell line EOL-1 (Catalog # ACC-386) was purchased from DSMZ and were grown in Roswell Park Memorial Institute medium (RPMI) with 10% Fetal Bovine Serum (FBS). Cells were kept in log growth as outlined in the technical data sheet provided by the vendor.
Exponentially growing EOL-1 cells were plated in 96-well plates at a density of 3×10^4 viable cells/well. Each treatment was seeded in triplicate with a final well volume of 150 μLs. Cells were incubated with increasing concentrations of DOT1L inhibitor up to 50 μM. Viable cell number was determined every 3-4 days for 11 days using the Guava Viacount assay (Millipore #4000-0040) and analyzed on a Guava EasyCyte Plus instrument according to the manufacturer's protocol. On the days of cell counts, growth media and inhibitor were replenished and cells maintained in log phase culture by reseeding at a density of 5×10^4 viable cells/well. Total cell number was expressed as split-adjusted viable cells per well. For each cell inhibitor IC50 values were determined from concentration-dependence curves at day 11. […]
The effect of DOT1L inhibitors on leukemia cell growth and viability was investigated. […] The number of viable cells was determined every 3-4 days for 11 days. […] Total cell number was expressed as split-adjusted viable cells per well. […]

[4] = tested on: FLT3; experiment: Quantitative real-time PCR, FLT3 expression after DOT1L inhibitor treatment; settings: up to 10 μM for 6 days, qPCR
Description: as §1

[5] = tested on: DOT1L; experiment: Quantitative real-time PCR, DOT1L expression after DOT1L inhibitor treatment; settings: up to 10 μM for 6 days, qPCR
Description: (§2) Exponentially growing EOL-1 cells were plated in a 12 well plate at 2×10^5 cells/mL. […] On day 4, cells were maintained in log phase culture by reseeding at 5×10^5 cells/mL and compound was replenished. At day 6 cells were washed twice with PBS and pelleted by centrifugation at 200×g. Cell pellets were lysed in 300 μL RLT buffer (Qiagen) and total RNA was isolated using the RNeasy total RNA isolation kit (Qiagen 74106). Total RNA (1 μg) was reverse transcribed using a high capacity cDNA reverse transcription kit (Applied Biosystems 4368813). RNA isolation and cDNA synthesis were carried out according to the manufacturer's protocol. Predesigned labeled primer and probe sets for HOXA9 (Hs00365956), MEIS1 (Hs00180020) and FLT3 (Hs00975659) were purchased from Applied Biosystems. Quantitative real-time PCR (qPCR) reactions contained 50 ng cDNA, 1× labeled primer and probe set, and 1× Taqman universal PCR master mix (Applied Biosystems 4304437). Samples were run on a 7900 HT Fast Real Time PCR machine (Applied Biosystems 4351405) with cycling conditions of 2 min 50° C., 10 min 95° C., 40 cycles at 15 sec 95° C. and 1 min 60° C. […] Percent of DMSO control was calculated with the equation (2^−ΔΔCT)*100 where the ΔΔCT is the difference between normalized target gene and DMSO control (ΔCT sample−ΔCT control=ΔΔCT).

[6] = tested on: MEIS1; experiment: Quantitative real-time PCR, MEIS1 expression after DOT1L inhibitor treatment; settings: up to 10 μM for 6 days, qPCR
Description: as §2

IC50 ([1]; Homo sapiens, EOL1, 96 h, 4 days of treatment, read-out: IC50, inhibition of methylation of H3K79 (H3K79me2)) [nM] | Structure (SMILES) | inhibition of methyltransferase activity of DOT1L (H3K79me2 western blot) ([1]; 4 days, 0.009 to 10 μM) | HOXA9 expression [2] | cell growth of EOL-1 cells ([3]; 0.003 μM-50 μM, 11 days, MLL PTD cell line) | IC50 ([3]; Homo sapiens, EOL1, 264 h, concentration-dependence curves at day 11) [nM] | FLT3 expression [4] | DOT1L gene expression [5] | MEIS1 expression [6]
27 | CC(C)N(C[C@H]1O[C@@H](n2cnc3c(N)ncnc32)[C@H](O)[C@@H]1O)[C@H]1C[C@@H](CCc2nc3cc(C(C)(C)C)ccc3[nH]2)C1 [Compound A2, (2R,3R,4S,5R)-2-(6-amino-9H-purin-9-yl)-5-((((1r,3S)-3-(2-(5-(tert-butyl)-1H-benzo[d]imidazol-2-yl)ethyl)cyclobu-tyl)(isopropyl)a-mino)methyl)tet-rahydrofuran-3,4-diol] | dose-dependent inhibition | reduced in a dose-dependent manner | significantly inhibited | 2 | reduced in a dose-dependent manner |  | 
 | CC(C)N(CCCNC(=O)Nc1ccc(C(C)(C)C)cc1)CC1O[C@@H](n2ccc3c(N)ncnc32)[C@H](O)[C@@H]1O (stereo partly shown) [Compound T] |  | reduced in a dosage-dependent manner |  |  | reduced in a dosage-dependent manner | not reduced | reduced in a dosage-dependent manner
